Consider 28 molecules from the supplement of paper PMC12613149.

Series [1] in a line: reversed-phase LC retention time (C18, 15 min MeOH gradient); higher = more hydrophobic / later elution.
Series [2] is described as follows: collision cross section (TIMS, N2 drift gas) of the primary ion; higher = larger gas-phase ion size.
Setting [3] is: ionization mode: ESI+, ion species: [M+H]+.
The mark [4] stands for this setting: ionization mode: ESI-, ion species: [M-H]-.
[5] abbreviates: ionization mode: ESI+, ion species: [M]+.

With `NC(=O)c1c(Cl)cccc1Cl` [2,6-Dichlorobenzamide], the “reversed-phase LC retention time” value in series [1] (setting [3]) is 7.49 min. In series [2] (setting [3]), this molecule displayed a collision cross section of 133.04 Å².
As to `CCCCCCCCCCCCc1ccccc1S(=O)(=O)O` [Dodecylbenzenesulfonic acid], the “reversed-phase LC retention time” value in series [1] (setting [4]) stood at 17.3 min. In addition, in series [2] (setting [4]), the collision cross section stood at 185.13 Å².
In the same order, the values of `C#C[C@]1(O)CC[C@H]2[C@@H]3CCc4cc(O)ccc4[C@H]3CC[C@@]21C` [17-alpha-Ethinylestradiol] are 14.3 min and 182.24 Å².
`CC(C)(C)CC(C)(C)c1ccc(OCCOCC[N+](C)(C)Cc2ccccc2)cc1` [Benzethonium]: the “reversed-phase LC retention time” value in series [1] (setting [5]) was found to be 16.3 min. This molecule also came in with a collision cross section in series [2] (setting [5]) of 211.12 Å².
`CC(C)NCC(O)COc1ccc(CC(N)=O)cc1` (centres undefined) [Atenolol]: the “reversed-phase LC retention time” value in series [1] (setting [3]) was 6.24 min. In series [2] (setting [3]), the collision cross section was determined as 157.6 Å².
In the case of `CC(C)N1C(=O)c2ccccc2NS1(=O)=O` [Bentazone], the “reversed-phase LC retention time” value in series [1] (setting [4]) worked out at 7.56 min. The collision cross section in series [2] (setting [4]) stood at 145.72 Å².
Regarding `CN(C)CC(c1ccc(O)cc1)C1(O)CCCCC1` (centres undefined) [Venlafaxine-O-desmethyl], the “reversed-phase LC retention time” value in series [1] (setting [3]) came to 8.96 min; in series [1] (setting [4]), 11.3 min. The collision cross section is 166.78 Å² in series [2] (setting [3]) and 172.85 Å² in series [2] (setting [4]).
With `COc1ccc([C@@H]2Sc3ccccc3N(CCN(C)C)C(=O)[C@@H]2OC(C)=O)cc1` [Diltiazem], the “reversed-phase LC retention time” value in series [1] (setting [3]) amounted to 12.1 min. Also, in series [2] (setting [3]), the collision cross section worked out at 198.45 Å².
As to `CC(=NC#N)N(C)Cc1ccc(Cl)nc1` [Acetamiprid], the “reversed-phase LC retention time” value is 9.29 min in series [1] (setting [3]) and 9.38 min in series [1] (setting [4]). Further, the results for the collision cross section in series [2] (setting [3]) and in series [2] (setting [4]) were 153.22 Å² and 148.19 Å², respectively.
Regarding `CN(C)C(=O)Nc1ccccc1` [Fenuron], in series [1] (setting [3]), the “reversed-phase LC retention time” value came to 8.82 min. This molecule gave a collision cross section in series [2] (setting [3]) of 132.76 Å².
In the case of `CCNc1nc(NC(C)C)nc(SC)n1` [Ametryne], in series [1] (setting [3]), the “reversed-phase LC retention time” value turned out to be 12.8 min. In series [2] (setting [3]), this molecule registered a collision cross section of 155.28 Å².
`OCC1OC(OC2(CCl)OC(CCl)C(O)C2O)C(O)C(O)C1Cl` (centres undefined) [Sucralose]: the “reversed-phase LC retention time” value in series [1] (setting [4]) was 8.22 min. The molecule further displayed a collision cross section in series [2] (setting [4]) of 174.98 Å².
As for `CCCCOC(=O)c1ccccc1C(=O)OCc1ccccc1` [Benzylbutylphthalate], the “reversed-phase LC retention time” value in series [1] (setting [3]) worked out at 16.3 min. For the same molecule, the collision cross section in series [2] (setting [3]) came out at 178.47 Å².
Turning to `O=C(O)C(F)(F)C(F)(F)C(F)(F)C(F)(F)C(F)(F)C(F)(F)F` [Perfluoroheptanoic acid], in series [1] (setting [4]), the “reversed-phase LC retention time” value was found to be 13.8 min. The same molecule gave a collision cross section in series [2] (setting [4]) of 146.98 Å².
In the same order, the values of `CC/C(=C(/CC)c1ccc(O)cc1)c1ccc(O)cc1` [Diethylstilbestrol] are 14.5 min and 175.03 Å².
As to `CC(C)(C)NC(=O)[C@H]1CC[C@H]2[C@@H]3CC[C@H]4NC(=O)C=C[C@]4(C)[C@H]3CC[C@]12C` [Finasteride], the figures for the “reversed-phase LC retention time” value in series [1] (setting [3]) and in series [1] (setting [4]) were 14.6 min and 15 min, respectively. The collision cross section in series [2] (setting [3]) is listed as 203.71 Å²; in series [2] (setting [4]) it was 198.56 Å².
For the molecule `CCC(=O)OCC(=O)[C@@]1(OC(=O)CC)[C@@H](C)C[C@H]2[C@@H]3CCC4=CC(=O)C=C[C@]4(C)[C@@]3(Cl)[C@@H](O)C[C@@]21C` [Beclometasone dipropionate], the “reversed-phase LC retention time” value in series [1] (setting [4]) amounted to 16.5 min. In series [2] (setting [4]), this molecule had a collision cross section of 223.83 Å².
For `CCN(CC)C(=O)C(C)Oc1cccc2ccccc12` (centres undefined) [Napropamide], the “reversed-phase LC retention time” value in series [1] (setting [3]) worked out at 14.9 min. Besides, the collision cross section in series [2] (setting [3]) was 164.64 Å².
In the same order, the values of `O=C1NC(=O)C(c2ccccc2)(c2ccccc2)N1` [Phenytoin] are 11.9 min and 162.42 Å².
In the same order, the values of `COCCc1ccc(OCC(O)CNC(C)C)cc1` (centres undefined) [Metoprolol] are 9.39 min and 171.87 Å².
On to `Nc1ccc(S(=O)(=O)Nc2ccccn2)cc1` [Sulfapyridine], for which the “reversed-phase LC retention time” value is 6.69 min in series [1] (setting [3]) and 6.7 min in series [1] (setting [4]). Also, the collision cross section in series [2] (setting [3]) was 154.05 Å²; in series [2] (setting [4]), 155.15 Å².
Consider `COC(=O)[C@H](C)N(C(=O)Cc1ccccc1)c1c(C)cccc1C` [Benalaxyl], for which, in series [1] (setting [3]), the “reversed-phase LC retention time” value worked out at 15.6 min. Besides, the collision cross section in series [2] (setting [3]) is 173.08 Å².
Taken in the same sequence, the figures for `CN1CCN2c3ncccc3Cc3ccccc3C2C1` (centres undefined) [Mirtazapine] were 9.54 min and 160.18 Å².
`COc1ccc(CCN(C)CCCC(C#N)(c2ccc(OC)c(OC)c2)C(C)C)cc1OC` (centres undefined) [Verapamil]: in series [1] (setting [3]), the “reversed-phase LC retention time” value is 12.2 min. For the same molecule, in series [2] (setting [3]), the collision cross section is given as 208.22 Å².
In the same order, the values of `CCOC1Oc2ccc(OS(C)(=O)=O)cc2C1(C)C` (centres undefined) [Ethofumesate] are 13.8 min and 166.62 Å².
With `CC(C)C(=O)c1ccccc1` [Isobutyrophenone], the “reversed-phase LC retention time” value in series [1] (setting [3]) was 17.1 min. Moreover, the collision cross section in series [2] (setting [3]) turned out to be 128.32 Å².
Taken in the same sequence, the figures for `Cc1cc(=O)n(-c2ccccc2)n1C` [Phenazone] were 8.8 min and 138.2 Å².
Taken in the same sequence, the figures for `CC(C)(c1ccc(OCC(O)CCl)cc1)c1ccc(OCC(O)CCl)cc1` (centres undefined) [Bisphenol A bis(3-chloro-2-hydroxypropyl) ether] were 14.2 min and 194.74 Å².
